Laboratory results: patent US11684614B2, “Formulations of hydroxypyridonate actinide/lanthanide decorporation agents” (priority 2017, dated 2023)

Test: 3,4,3-LI(1,2-HOPO)-excipient compatibility study (visual observation, HPLC purity and impurities on storage)
Format: physicochemical
Conditions: for 3L1O Purity / Total Impurities: n = 1
Method: The objective of the analytical study described in this report was to evaluate the interactions between 3,4,3-L1(1,2-HOPO) and selected pharmaceutical excipients under 25° C./60% RH and 40° C./75% RH conditions over eight weeks. Physical appearance and potency of the different samples were assessed at T=0, 2, 4, and 8 weeks through visual observations and high performance liquid chromatography (HPLC) analysis.
The stability of 3,4,3-L1(1,2-HOPO) was tested according to the conditions listed below in TABLE 1.1. A11 test samples were stored throughout the study in 40 mL clear USP Type 1 glass vials (28 mm OD×95 mm height; 24 mm screw cap), wrapped in aluminum foil.
• Test Samples: Each test mixture was prepared by weighing the desired quantity of 3,4,3-L1(1,2-HOPO) and excipient (both screened through sieve #40) into vials. Both ingredients were first mixed using a clean glass rod and then vortexed. At each time interval, one vial was withdrawn from each drug-excipient series along with the corresponding placebo preparation and tested as described below.
b. Sample Characterization • Visual Observation: For each sample solution, visual observation consisted in recording color and physical form.
c. Chromatographic Assay and Purity Assessment • Standard Stock Solutions: For each standard stock solutions, the test article was weighed (200 mg) and dissolved by sonication into 30 mL of diluent (water:acetonitrile=90%:10%). After equilibration at room temperature, the volume of the standard solution was adjusted to 50 mL. Standard stock solutions were prepared in duplicates, working standard solutions were prepared by dilution of each stock with the diluent to the desired concentrations. • Calibration Standards: With each experiment, 5 calibration standard solutions at different concentrations were prepared from stock solutions using the diluent. Concentrations of the calibration standards were between 1.6 and 2.4 mg/mL. […] The vials were then mechanically shaken for 15 minutes, followed by centrifugation of the sample solutions (10,000 rpm, 10 min), and the supernatants were used for the assay. • Placebo Preparation: 25 mL of diluent was added to each of the placebo vial. The vials were then mechanically shaken for 15 minutes, followed by centrifugation of the sample solutions (10,000 rpm, 10 min), and the supernatants were used for the assay. Analytical Method: Instrument: Waters Alliance 2695 liquid chromatography system Column: Agilent, Eclipse XDB-C18, 4.6×150 mm, 5 μm. Mobile Phase A: 0.05% formic acid in 95% H2O: 5% ACN Mobile Phase B: 0.05% formic acid in acetonitrile (ACN)
Column Temperature: 25° C. Flow Rate: 1.0 mL/min. Injection Volume: 10 μL Detection: 250 nm Run Time: 50 min Diluent: 9:1 H2O:ACN Analysis Sequence:
• Suitability Requirements: There should be no interference from the diluent/blank at the retention times of 3,4,3-L1(1,2-HOPO) peaks. The relative standard deviation (% RSD) for five replicate system suitability injections should be below 2.0%. The response factor of the second standard should be within 95-105%. The correlation coefficient (R2) of the system linearity standards should be higher than 0.990. 5. Results

O=C(NCCCN(CCCCN(CCCNC(=O)c1cccc(=O)n1O)C(=O)c1cccc(=O)n1O)C(=O)c1cccc(=O)n1O)c1cccc(=O)n1O [3,4,3-L1(1,2-HOPO)]
Unknown Impurity RRT 1.27 (40° C./75% RH, 2 Weeks): 0.36 % w/w | Unknown Impurity RRT 1.3 (40° C./75% RH, 2 Weeks): 0.16 % w/w | Unknown Impurity RRT 1.39 (40° C./75% RH, 2 Weeks): 0.05 % w/w | Unknown Impurity RRT 1.41 (40° C./75% RH, 2 Weeks): 0.01 % w/w | Unknown Impurity RRT 1.46 (40° C./75% RH, 2 Weeks): 0.07 % w/w | Unknown Impurity RRT 2.31 (40° C./75% RH, 2 Weeks): 0.05 % w/w | Unknown Impurity RRT 2.59 (40° C./75% RH, 2 Weeks): 0.04 % w/w | Unknown Impurity RRT 2.8 (40° C./75% RH, 2 Weeks): 0.03 % w/w | 3L1O Purity (40° C./75% RH, 2 Weeks): 98.62 % Area | Total Impurities (40° C./75% RH, 2 Weeks): 1.38 % Area | Unknown Impurity RRT 0.24 (40° C./75% RH, 4 weeks): 0.05 % w/w | Unknown Impurity RRT 0.58 (40° C./75% RH, 4 weeks): 0.09 % w/w | Unknown Impurity RRT 0.6 (40° C./75% RH, 4 weeks): 0.06 % w/w | Unknown Impurity RRT 0.62 (40° C./75% RH, 4 weeks): 0.07 % w/w | Unknown Impurity RRT 0.81 (40° C./75% RH, 4 weeks): 0.02 % w/w | Unknown Impurity RRT 0.87 (40° C./75% RH, 4 weeks): 0.16 % w/w | Unknown Impurity RRT 0.89 (40° C./75% RH, 4 weeks): 0.03 % w/w | Unknown Impurity RRT 1.02 (40° C./75% RH, 4 weeks): 0.03 % w/w | Unknown Impurity RRT 1.11 (40° C./75% RH, 4 weeks): 0.06 % w/w | Unknown Impurity RRT 1.27 (40° C./75% RH, 4 weeks): 0.26 % w/w | Unknown Impurity RRT 1.3 (40° C./75% RH, 4 weeks): 0.2 % w/w | Unknown Impurity RRT 1.39 (40° C./75% RH, 4 weeks): 0.74 % w/w | Unknown Impurity RRT 1.41 (40° C./75% RH, 4 weeks): 0.01 % w/w | Unknown Impurity RRT 1.46 (40° C./75% RH, 4 weeks): 0.08 % w/w | Unknown Impurity RRT 1.72 (40° C./75% RH, 4 weeks): 0.09 % w/w | Unknown Impurity RRT 2.3 (40° C./75% RH, 4 weeks): 0.04 % w/w | Unknown Impurity RRT 2.59 (40° C./75% RH, 4 weeks): 0.03 % w/w | Unknown Impurity RRT 2.79 (40° C./75% RH, 4 weeks): 0.02 % w/w | 3L1O Purity (40° C./75% RH, 4 weeks): 98.63 % Area | Total Impurities (40° C./75% RH, 4 weeks): 1.37 % Area | Unknown Impurity RRT 0.24 (40° C./75% RH, 8 Weeks): 0.34 % w/w | Unknown Impurity RRT 0.58 (40° C./75% RH, 8 Weeks): 0.2 % w/w | Unknown Impurity RRT 0.59 (40° C./75% RH, 8 Weeks): 0.16 % w/w | Unknown Impurity RRT 0.62 (40° C./75% RH, 8 Weeks): 0.18 % w/w | Unknown Impurity RRT 0.81 (40° C./75% RH, 8 Weeks): 0.05 % w/w | Unknown Impurity RRT 0.87 (40° C./75% RH, 8 Weeks): 0.18 % w/w | Unknown Impurity RRT 0.89 (40° C./75% RH, 8 Weeks): 0.32 % w/w | Unknown Impurity RRT 0.91 (40° C./75% RH, 8 Weeks): 0.11 % w/w | Unknown Impurity RRT 0.95 (40° C./75% RH, 8 Weeks): 0.04 % w/w | Unknown Impurity RRT 1.02 (40° C./75% RH, 8 Weeks): 0.09 % w/w | Unknown Impurity RRT 1.12 (40° C./75% RH, 8 Weeks): 0.05 % w/w | Unknown Impurity RRT 1.27 (40° C./75% RH, 8 Weeks): 0.4 % w/w | Unknown Impurity RRT 1.31 (40° C./75% RH, 8 Weeks): 0.01 % w/w | Unknown Impurity RRT 1.39 (40° C./75% RH, 8 Weeks): 0.08 % w/w | Unknown Impurity RRT 1.41 (40° C./75% RH, 8 Weeks): 0 % w/w | Unknown Impurity RRT 1.46 (40° C./75% RH, 8 Weeks): 0.12 % w/w | Unknown Impurity RRT 1.72 (40° C./75% RH, 8 Weeks): 0.1 % w/w | Unknown Impurity RRT 2.31 (40° C./75% RH, 8 Weeks): 0.03 % w/w | Unknown Impurity RRT 2.6 (40° C./75% RH, 8 Weeks): 0.02 % w/w | Unknown Impurity RRT 2.8 (40° C./75% RH, 8 Weeks): 0.02 % w/w | 3L1O Purity (40° C./75% RH, 8 Weeks): 97.49 % Area | Total Impurities (40° C./75% RH, 8 Weeks): 2.51 % Area | Unknown Impurity RRT 0.58 (Initial (T = 0)): 0.05 % w/w | Unknown Impurity RRT 0.59 (Initial (T = 0)): 0.04 % w/w | Unknown Impurity RRT 0.62 (Initial (T = 0)): 0.04 % w/w | Unknown Impurity RRT 0.87 (Initial (T = 0)): 0.1 % w/w | Unknown Impurity RRT 0.89 (Initial (T = 0)): 0.02 % w/w | Unknown Impurity RRT 1.03 (Initial (T = 0)): 0.21 % w/w | Unknown Impurity RRT 1.11 (Initial (T = 0)): 0.04 % w/w | Unknown Impurity RRT 1.27 (Initial (T = 0)): 0.29 % w/w | Unknown Impurity RRT 1.3 (Initial (T = 0)): 0.21 % w/w | Unknown Impurity RRT 1.39 (Initial (T = 0)): 0.09 % w/w | Unknown Impurity RRT 1.41 (Initial (T = 0)): 0.01 % w/w | Unknown Impurity RRT 1.46 (Initial (T = 0)): 0.11 % w/w | Unknown Impurity RRT 2.31 (Initial (T = 0)): 0.05 % w/w | 3L1O Purity (Initial (T = 0)): 98.73 % Area | Total Impurities (Initial (T = 0)): 1.27 % Area
